This is an account of results in paper PMC6659632, “Preferential phosphatidylinositol 5-phosphate binding contributes to a destabilization of the VHS domain structure of Tom1” (Scientific Reports, 2019).

Like-named read-outs stand apart in the source and are kept apart here.

Holding throughout (format): binding
The target of test [1] is T1, Tom1 VHS domain (Homo sapiens, UniProt O60784).
T1 construct: GST fusion from E. coli Rosetta, GST cut off with thrombin; monomer
The test can be described thus: isothermal titration calorimetry. The source says:
isothermal titration calorimetry on Tom1 VHS domain
A general note: In ITC the heat of successive injections is recorded.

Test [2] addresses T1, Tom1 VHS domain. The test can be described thus: thermal denaturation by far-UV CD at […] nm. The following applies: molar excess of lipid, nonreducing, 5 mM sodium citrate pH 7.3, 50 mM KF; free protein Tm 47.5 ± 0.1 °C.
In test [3] the target is T1, Tom1 VHS domain. The test can be described thus: thermal denaturation by far-UV CD at […] nm. As to conditions: pre-incubated with excess lipid, nonreducing, 5 mM sodium citrate pH 7.3, 50 mM KF; free protein Tm 47.5 ± 0.1 °C.

One may read the Kd as the free concentration of one partner at which half of the binding sites on the other are occupied at equilibrium, for simple one-to-one binding. A low value points to higher affinity.

T1 sequence (O60784 1-140 limits assumed): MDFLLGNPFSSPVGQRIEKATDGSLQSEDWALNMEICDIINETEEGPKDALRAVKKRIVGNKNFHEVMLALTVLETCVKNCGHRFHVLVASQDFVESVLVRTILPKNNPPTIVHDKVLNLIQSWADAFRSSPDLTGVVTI

`O=P(O)(O)O[C@@H]1[C@@H](O)[C@H](OP(=O)(O)O)[C@H](O)[C@H](O)[C@H]1O` [Ins(1,5)P2] showed a Kd on Tom1 VHS domain [1] of 214 ± 67.2 µM.

On to `CCCCCCCC(=O)OC[C@H](COP(=O)([O-])OCC[N+](C)(C)C)OC(=O)CCCCCCC` [PtdCho], for which the “Tm (°C) / N to I/D” value at Tom1 VHS domain [2] amounted to 43.0 ± 0.1 °C.

`CCCCCCCC(=O)OC[C@H](COP(=O)(O)O[C@H]1[C@H](O)[C@@H](OP(=O)(O)O)[C@H](O)[C@@H](O)[C@H]1O)OC(=O)CCCCCCC` [PtdIns5P]: the equilibrium dissociation constant (Kd) at Tom1 VHS domain [1] (high-affinity site of two-site fit, nonreducing, 20 mM HEPES pH 7.4, 150 mM KCl, 25 °C) is 3.1 ± 0.6 µM. Besides, the “Tm (°C) / N to I/D” value on Tom1 VHS domain [2] amounted to 37.6 ± 0.3 °C.

Take PtdIns: at Tom1 VHS domain [3], the mid-transition temperature turned out to be 34 °C.
